From patent US20110189670A1, “Circulating Tumor and Tumor Stem Cell Detection Using Genomic Specific Probes” (priority 2008, published 2011)

Test system: peripheral blood lymphocytes
Assay: Cytokinesis-block micronucleus (CBMN) assay, spontaneous and NNK-induced chromosomal damage (MN, NPBs, NBUDs)
Assay type: cell-based, human
Conditions: 0.24 mM NNK, 2 hours
Method: The CBMN test was performed using the cytochalasin B technique described by Fenech and Morley and following recommendations from The International Collaborative Project on Micronucleus Frequency in Human Populations (HUMN Project) (22) to measure MN, NPBs and NBUDs in untreated cells and NNK-treated cells. Duplicate lymphocyte cultures were prepared for each study subject. Each culture contained 2.0×10^6 cells in 5 mL RPM1 1640 medium supplemented with 100 U/mL penicillin, 100 μg/mL streptomycin, 10% fetal bovine serum, and 2 mM L-glutamine (Gibco-Invitrogen, Carlsbad, Calif.) and 1% phytohemagglutinin (Remel, Lenexa, Kans.). For the cultures treated with NNK, 24 hours after initiation, the PBLs were centrifuged and the supernatant growth medium was removed and reserved. The PBLs were resuspended in 5 mL of serum-free RPM1 1640 medium supplemented with 0.24 mM NNK (CAS No 64091-91-4, National Cancer Institute, Midwest Carcinogen Repository, Kansas City, Mo.) and incubated at 37° C. in the presence of 5% COz for 2 hours. Next, the PBLs were washed twice with serum-free RPM1 1640, transferred to clean tubes and re-incubated for 48 hours in the reserved supernatant At 44 hours after initiation, cells were blocked in cytokinesis by adding cytochalasin B (Sigma, St Louis, Mo.; final concentration 4 μg/mL). Similarly, cultures for the determination of spontaneous damage (untreated cells) were handled in the same manner, with the exception of treatment with NNK. The total incubation time for all cultures was 72 hours. After incubation, the cells were fixed in 3:1 methanol:glacial acetic acid, dropped onto clean microscopic slides, air-dried and stained with Giemsa stain. For each sample, 1000 binucleated cells were scored blindly using a Nikon E-400 light optical microscope following the scoring criteria outlined by HUMN Project (2,11,23); the numbers of MN, NPBs, and NBUDs per 1000 binucleated cells were recorded For quality control, 20% of the slides were randomly selected and blindly rescored and the results compared with the original scoring
Tobacco smoke carcinogens and individual susceptibility play key roles in determining risk of lung cancer. There are a variety of biomarkers evaluating susceptibility to the carcinogenic effects of benzo[a]pyrene; however, no assays specifically evaluate susceptibility to the nicotine-derived nitrosamine 4-(methylnitrosamino)-1-(3-pyridyl)-1-butanone (NNK), a potent inducer of lung adenocarcinoma. In this case-control study, the inventors modified the cytokinesis-block micronucleus (CBMN) assay, an established biomarker for DNA damage and genomic instability, to evaluate susceptibility to NNK by measuring the frequency of NNK-induced chromosomal damage endpoints (micronuclei [MN]; nucleoplasmic bridges [NPBs] and nuclear buds “BUDS]) per 1000 binucleated peripheral blood lymphocytes. […] Forty-seven percent of the cases (compared with 12% of the controls) had ≧4 spontaneous MN, 66% of the cases (and no controls) had ≧4 spontaneous NPBs, and 25% of cases (versus 5% of controls) had ≧1 spontaneous NBUDs (P<001). Similarly, 40% of the cases (versus 6% of the controls) had ≧5 NNK-induced MN, 89% of the cases (and no controls) had ≧6 induced NPBs, and 23% of the cases (vs 2% of the controls had 2 induced NBUDs (P<001). As continuous variables, spontaneous MN, NPBs and NBUDs were associated with 2-, 29-, and 6-fold increases in risk for cancer. Similarly, NNK-induced 2 3-, 45.5-, and 10-fold increases in risk for cancer. The inventors also evaluated the use of results from the CBMN assay to predict cancer risk based on the numbers of MN, NPBs, and NBUDs defined by percentile cut-points in control data. The probability of being a cancer patient were 96%, 98% and 100% when using the 95th percentiles of spontaneous and NNK-induced MN, NPBs and NBUDs, respectively, in combination. […]

## CN(CCCC(=O)c1cccnc1)N=O [NNK, 4-(methylnitrosamino)-1-(3-pyridyl)-1-butanone]
Lung cancer cases (139)
  subjects with 2 induced NBUDs per 1000 binucleated peripheral blood lymphocytes: 23%
  subjects with ≧5 NNK-induced MN per 1000 binucleated peripheral blood lymphocytes: 40%
  subjects with ≧6 induced NPBs per 1000 binucleated peripheral blood lymphocytes: 89%
Matched controls (130)
  subjects with 2 induced NBUDs per 1000 binucleated peripheral blood lymphocytes: 2%
  subjects with ≧5 NNK-induced MN per 1000 binucleated peripheral blood lymphocytes: 6%
  subjects with ≧6 induced NPBs per 1000 binucleated peripheral blood lymphocytes: no controls
